Experimental findings from patent US6518302B1, “Remedies” (Takara Shuzo Co., Ltd., priority 1999, dated 2003) are described below.

For experiment [1], the system named is IL-10 production in RAW264.7 cells. Briefly: Inhibition of LPS-induced IL-10 production (ELISA). It counts as cell-based, Mouse. The settings on record: 0.5 ml, 5 μl of 10 mM compound (14), 1 μl of 25 mM compound (7) or 1 μl of 50 mM compound (17), 18 hours after LPS. The method, then:
RAW264.7 cells (ATCC TIB 71) were suspended in Dulbecco's modified Eagle's medium (Bio Whittaker, 12-604F) containing 10% fetal calf serum (Gibco) at a concentration of 3×10^5 cells/ml. 0.5 ml of the suspension was added to each well of a 48-well microtiter plate and the plate was incubated at 37° C. overnight in the presence of 5% CO2. 5 μl of a solution containing the compound (14) at a concentration of 10 mM in water, 1 μl of a solution of the compound (7) at a concentration of 25 mM in dimethyl sulfoxide, or 1 μl of a solution of the compound (17) at a concentration of 50 mM in dimethyl sulfoxide was added to the well. After incubation for additional 5 hours, 5 μl of a solution of lipopolysaccharide (LPS, Sigma, L-2012) at a concentration of 100 μg/ml in water was added thereto. After incubation for 18 hours, a culture supernatant was collected. The content of interleukin 10 (IL-10) in the culture supernatant was measured using enzyme immuno sandwich assay (ELISA; Mouse IL-10 ELISA Kit, Endogen). As a control, a group to which the sample or the LPS aqueous solution was not added was provided. All of the measurements were carried out in duplicate.
FIG. 27 illustrates the IL-10 concentrations in culture supernatants obtained by culturing under various culture conditions. The horizontal axis represents the culture conditions and the vertical axis represents the IL-10 concentration (pg/ml).

Experiment [2] concerns prostaglandin E2 production in RAW264.7 cells. Put plainly: Inhibition of prostaglandin E2 production induction by LPS (ELISA). To be noted: compound (7), (14) or (17) at final concentration of 50, 100 or 100 μM, respectively. It counts as cell-based. On the procedure:
RAW264.7 cells were suspended in Dulbecco's modified Eagle's medium (Bio Whittaker, Code. 12-604F) containing 10% fetal calf serum at a concentration of 3×10^5 cells/ml. 500 μl of the suspension was added to each well of a 48-well microtiter plate and the plate was incubated at 37° C. for 6 hours in the presence of 5% CO2. The compound (7), (14) or (17) prepared in Example 1 was added to the well at a final concentration of 50, 100 or 100 μM, respectively. The plate was incubated for additional 5 hours. 10 μl of 50 μg/ml lipopolysaccharide (LPS, Sigma, Code. L-2012) aqueous solution was then added to the well. After the plate was incubated for additional 12 hours, the amount of prostaglandin E2 was measured. As control groups, a group to which LPS was not added and a group to which the compound (7), (14) or (17) was not added were provided.
After cultivation, the amount of prostaglandin E2 in the culture supernatant was measured using Prostaglandin E2 ELISA Kit (Neogen, Code. 404110). All of the measurements were carried out in triplicate.
FIG. 21 illustrates the prostaglandin E2 concentration in the medium obtained by incubating under various culture conditions. In FIG. 21, the horizontal axis represents the culture conditions and the vertical axis represents the prostaglandin E2 concentration (ng/ml).

`O=C[C@H](O)[C@H]1OC[C@@H](O)[C@@H]1OC(=O)c1ccccc1` [Compound (7), 4-O-benzoyl-3,6-anhydro-D-galactose]: the “inhibition of LPS-induced IL-10 production” value in experiment [1] was “inhibition of LPS-induced IL-10 production was observed”. Also, the “inhibition of prostaglandin E2 production induction by LPS” value (shortened to “inhibition … by LPS”) in experiment [2] is reported as “inhibited the prostaglandin E2 production induction by LPS”.

Take `OCC1OC(OC2C(CO)OC(OC3C(CO)OC(OC4C(O)COC4C(O)C(O)O)C(O)C3O)C(O)C2O)C(O)C(O)C1O` [Compound (14), 4-O-β-maltotoriosyl-3,6-anhydro-D-galactose]: in experiment [1], the “inhibition of LPS-induced IL-10 production” value was “inhibition of LPS-induced IL-10 production was observed”. Further, the “inhibition … by LPS” value in experiment [2] was “inhibited the prostaglandin E2 production induction by LPS”.

Take `O=C[C@H](O)[C@H]1OC[C@@H](O)[C@@H]1OCc1ccccc1` [Compound (17), 4-O-benzyl-3,6-anhydro-D-galactose]: the “inhibition of LPS-induced IL-10 production” value in experiment [1] was “inhibition of LPS-induced IL-10 production was observed”. Also, the “inhibition … by LPS” value in experiment [2] is on record as “inhibited the prostaglandin E2 production induction by LPS”.
